This is an account of results in ChEMBL document CHEMBL4346716, “Synthesis of novel andrographolide beckmann rearrangement derivatives and evaluation of their HK2-related anti-inflammatory activities” (Eur J Med Chem, 2019).

The IC50 is the concentration at which inhibition is half-maximal.

The structures appear in SMILES notation. Where only a bound is given, the exact number is not on record here.

One assay has as its system RAW264.7. In words: Antiinflammatory activity in mouse RAW264.7 cells assessed as inhibition of LPS-induced NO production preincubated for 3 hrs followed by LPS addition measured after 24 hrs by Griess assay. The format is functional, cell-based. In general terms: Nitrite, measured by Griess reagent, commonly stands in for NO production.
The target of another assay is T1, Hexokinase-2 (Homo sapiens, UniProt P52789).
T1 sequence (P52789 whole entry): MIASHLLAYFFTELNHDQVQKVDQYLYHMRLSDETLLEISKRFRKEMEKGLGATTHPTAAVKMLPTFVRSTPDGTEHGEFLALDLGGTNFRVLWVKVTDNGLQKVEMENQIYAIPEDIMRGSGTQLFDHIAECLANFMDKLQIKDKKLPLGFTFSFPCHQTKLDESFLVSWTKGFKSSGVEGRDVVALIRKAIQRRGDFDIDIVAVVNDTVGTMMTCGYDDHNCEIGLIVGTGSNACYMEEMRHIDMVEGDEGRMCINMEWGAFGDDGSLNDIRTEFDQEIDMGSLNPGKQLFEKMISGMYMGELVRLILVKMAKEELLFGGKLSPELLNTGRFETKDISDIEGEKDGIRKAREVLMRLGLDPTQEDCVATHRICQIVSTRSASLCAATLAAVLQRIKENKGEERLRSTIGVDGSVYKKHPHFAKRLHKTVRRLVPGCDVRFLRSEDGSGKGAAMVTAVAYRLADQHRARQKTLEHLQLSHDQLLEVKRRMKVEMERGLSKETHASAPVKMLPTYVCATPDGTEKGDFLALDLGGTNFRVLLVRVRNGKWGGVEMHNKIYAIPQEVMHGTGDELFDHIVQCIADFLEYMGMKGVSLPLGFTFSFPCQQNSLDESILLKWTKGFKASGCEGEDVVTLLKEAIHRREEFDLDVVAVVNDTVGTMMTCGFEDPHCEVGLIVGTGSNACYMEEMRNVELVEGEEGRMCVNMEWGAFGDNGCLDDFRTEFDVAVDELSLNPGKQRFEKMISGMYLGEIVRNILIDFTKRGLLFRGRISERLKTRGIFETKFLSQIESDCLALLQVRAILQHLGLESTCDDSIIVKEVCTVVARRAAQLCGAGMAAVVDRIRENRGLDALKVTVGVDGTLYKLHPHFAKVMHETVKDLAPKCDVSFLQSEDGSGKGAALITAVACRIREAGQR
Description: Inhibition of recombinant human HK2 expressed in Escherichia coli BL21(DE3) using glucose as substrate preincubated for 10 mins followed by substrate addition in presence of ATP by G6PDH/NADP coupled assay.

Regarding `C=C1CC[C@H]2[C@@](C)(CC[C@@H](OC(=O)[C@@H](N)Cc3ccccc3)[C@@]2(C)NC=O)[C@@H]1/C=C/C1=CCOC1=O`, the half-maximal inhibitory concentration (IC50) in the assay with RAW264.7 and on Hexokinase-2 was more than 50 µM throughout.

As for `C=C1CC[C@H]2[C@@](C)(CC[C@@H](OC(=O)c3cccnc3)[C@@]2(C)NC=O)[C@@H]1/C=C/C1=CCOC1=O`, the half-maximal inhibitory concentration (IC50) with RAW264.7 and on Hexokinase-2 was more than 50 µM each time.

As for `C=C1CC[C@H]2[C@@](C)(CCC(=O)N[C@@]2(C)COC(=O)[C@@H]2CCCN2)[C@@H]1/C=C/C1=CCOC1=O`, the half-maximal inhibitory concentration (IC50) in the assay with RAW264.7 and at Hexokinase-2 was more than 50 µM throughout.

As for `C[C@]12CCC(=O)C=C1CC[C@@H]1[C@@H]2[C@@H](O)C[C@@]2(C)[C@H]1CC[C@]2(O)C(=O)CO` [HYDROCORTISONE], the half-maximal inhibitory concentration (IC50) in the assay on RAW264.7 worked out at 52.4 µM.

As to `C=C1CC[C@H]2[C@@](C)(CC[C@@H](OC(=O)C(N)CC(C)C)[C@@]2(C)NC=O)[C@@H]1/C=C/C1=CCOC1=O` (single isomer, unassigned), the IC50 in the assay with RAW264.7 and at Hexokinase-2 was more than 50 µM in each case.

Turning to `C=C1CC[C@H]2[C@@](C)(CCC(=O)N[C@@]2(C)COC(=O)c2ccccc2)[C@@H]1/C=C/C1=CCOC1=O`, the half-maximal inhibitory concentration (IC50) in the assay on RAW264.7 and on Hexokinase-2 was more than 50 µM throughout.

As to `C=C1CC[C@H]2[C@@](C)(CC[C@@H](OC(=O)CN)[C@@]2(C)NC=O)[C@@H]1/C=C/C1=CCOC1=O`, the IC50 with RAW264.7 and at Hexokinase-2 was more than 50 µM each time.

On to `C=C1CC[C@H]2[C@@](C)(CCC(=O)N[C@@]2(C)COC(=O)[C@H](N)Cc2ccccc2)[C@@H]1/C=C/C1=CCOC1=O`, for which the IC50 with RAW264.7 was more than 50 µM; at Hexokinase-2, 4.8 µM.

Turning to `C=C1CC[C@@H]2[C@](C)(CO)[C@H](O)CC[C@@]2(C)[C@@H]1C/C=C1/C(=O)OC[C@H]1O` [ANDROGRAPHOLIDE], the IC50 is 14.4 µM in the assay on RAW264.7 and more than 50 µM at Hexokinase-2.

Consider `C=C1CC[C@H]2[C@@](C)(CC[C@@H](OC(=O)CNC)[C@@]2(C)NC=O)[C@@H]1/C=C/C1=CCOC1=O`, for which the IC50 in the assay on RAW264.7 and on Hexokinase-2 was more than 50 µM each time.

Turning to `C=C1CC[C@H]2[C@@](C)(CC[C@@H](OC(=O)c3ccccc3[N+](=O)[O-])[C@@]2(C)NC=O)[C@@H]1/C=C/C1=CCOC1=O`, the IC50 with RAW264.7 and on Hexokinase-2 was more than 50 µM in each case.

Consider `C=C1CC[C@H]2[C@@](C)(CCC(=O)N[C@@]2(C)COC(=O)c2ccc([N+](=O)[O-])cc2)[C@@H]1/C=C/C1=CCOC1=O`, for which the half-maximal inhibitory concentration (IC50) with RAW264.7 was 33.5 µM; at Hexokinase-2, more than 50 µM.

Consider `C=C1CC[C@H]2[C@@](C)(CCC(=O)N[C@@]2(C)COC(=O)c2cccnc2)[C@@H]1/C=C/C1=CCOC1=O`, for which the IC50 with RAW264.7 and at Hexokinase-2 was more than 50 µM in each case.

In the case of `C=C1CC[C@H]2[C@@](C)(CCC(=O)N[C@@]2(C)COC(=O)c2ccccc2[N+](=O)[O-])[C@@H]1/C=C/C1=CCOC1=O`, the IC50 with RAW264.7 and at Hexokinase-2 was more than 50 µM in each case.

For the molecule `C=C1CC[C@H]2[C@@](C)(CC[C@@H](OC(=O)[C@H]3CCCN3)[C@@]2(C)NC=O)[C@@H]1/C=C/C1=CCOC1=O`, the figures for the half-inhibitory concentration (IC50) with RAW264.7 and on Hexokinase-2 were more than 50 µM and 26.1 µM, respectively.

`C=C1CC[C@H]2[C@@](C)(CC[C@@H](O)[C@@]2(C)NC=O)[C@@H]1/C=C/C1=CCOC1=O`: the IC50 in the assay with RAW264.7 and at Hexokinase-2 was more than 50 µM in each case.

Consider `C=C1CC[C@H]2[C@@](C)(CC[C@@H](OC(=O)CCCC[C@@H]3CCSS3)[C@@]2(C)NC=O)[C@@H]1/C=C/C1=CCOC1=O`, for which the IC50 in the assay with RAW264.7 and on Hexokinase-2 was more than 50 µM throughout.

`C=C1CC[C@H]2[C@@](C)(CC[C@@H](OC(=O)c3ccc([N+](=O)[O-])cc3)[C@@]2(C)NC=O)[C@@H]1/C=C/C1=CCOC1=O`: the IC50 in the assay with RAW264.7 and at Hexokinase-2 was more than 50 µM in each case.

With `C=C1CC[C@H]2[C@@](C)(CCC(=O)N[C@@]2(C)COC(=O)[C@H](N)CC(C)C)[C@@H]1/C=C/C1=CCOC1=O`, the IC50 with RAW264.7 and at Hexokinase-2 was more than 50 µM in each case.

With `C=C1CC[C@H]2[C@@](C)(CCC(=O)N[C@@]2(C)CO)[C@@H]1/C=C/C1=CCOC1=O`, the half-inhibitory concentration (IC50) with RAW264.7 and at Hexokinase-2 was more than 50 µM in each case.
